Here are results for 3 compounds from patent publication US11939402B2, “Antifungal peptides, compounds including the same, and methods of use thereof” (priority 2022, dated 2024).

Values after ≈ are worked out from the molar mass of the structure shown. Where a SMILES comes first, the peptide text is derived from it. The star is where a group is joined. Myristoyl = CCCCCCCCCCCCCC(=O)* A value given as a limit tells only on which side of the number the result lay.

For series [1], the system named is C. neoformans cdc50Δ mutant strain. Type of series: cell-based, Cryptococcus neoformans. The note with it: for FIC ug/mL ΔCDC50 Peptide: concentration of the peptide in combination with caspofungin. How it is done: The Fractional Inhibitory Concentration Index were calculated as follows: […]
Series [2] shares this test system. Type of series: cell-based, Cryptococcus neoformans. The note with it: alone. How it is done:
(§1) The assays followed standard CLSI protocol for broth microdilution assays using yeasts.(32) Microbes were passaged in YPD media at 37° C. with mixing for 2 days before harvesting with an inoculation loop to prepare monocultures on Sabouraud Dextrose Agar (SDA) plates. Monocultures on SDA plates were incubated for 2 days at 37° C. before harvesting cells for microdilution assays. RPMI media (100 μL) was charged to each of the 96 wells in a 96 well plate, with an additional 100 μL in the first column. Peptide-DMSO solution (4 μL) at 12.8 mg/mL was charged to each of the wells in the first column. The 100 μL was serially diluted by a factor of 2 from the first column to the 11th column. Microbe inoculant was then prepared. An inoculation loop was used to transfer 1-3 colonies of cells to 1 mL phosphate buffer solution (PBS). The PBS and microbe solution was made uniform by vortex mixing. Cell concentration was computed by comparing the absorbance at 530 nm to 1× McFarland standard solution and multiplying the resulting ratio by 10^7 cell/mL conversion factor. Plate inoculant was prepared by diluting the PBS microbe solution to 5000 cell/mL, in RPMI media. A 100 μL aliquot of cells was transferred to each of the wells on the plate other than column 11 for the no growth control. The operating volume was 200 μL, with 500 CFU per well for a final concentration of 2.5*10^3 cells/mL.

Series [3] relates to C. neoformans wild type strain H99. The conditions noted are these: for FIC ug/mL H99 Peptide: concentration of the peptide in combination with caspofungin.
Series [4] has the same test system. Briefly: microbe, parasite or virus in culture. Type of series: cell-based, Cryptococcus neoformans. The note with it: wild-type H99, alone, read at 24 and 48 hours, 37° C. How it is done:
as §1, with “Peptide-DMSO solution (4 μL) at 12.8 mg/mL was charged to each of the wells in the first column.” left out

For the next series, the system named is C. neoformans cells. The series can be described thus: AF350-Annexin V / propidium iodine flow cytometry assay (exofacial phosphatidylserine). Type of series: cell-based, Cryptococcus neoformans. The note with it: 0.128 mg/mL peptide, 20 minutes at 25° C.; control 0.2±0.1%. How it is done: Stock microbes were defrosted from the −80° C. freezer and were passed twice for 48 hours each in YPD media. The YPD media was removed by spinning down and the supernatant was decanted. Pelletized cells were resuspended in 1 mL PBS media and washed for 5 minutes with incubation at 25° C. and 250 RPM. Washed cells were spun down again and suspended in 1 mL of PBS solution. cells were diluted 20-fold into 1 mL fungal working solution in an eppendorf. Cell concentration was quantified via comparison to 1× McFarlain's standard on a plate reader using the absorbance value at 530 nm. An aliquot of 1*10^6 cells in 100 μL was created (1*10^7 cell/mL). […] The cells were incubated for 20 minutes at 25° C. and 250 RPM. Baseline and experimental samples were prepared in triplicate. Cells were stained using an operating concentration of 0.001 mg/mL Propidium Iodine (PI) and a 40-fold dilution of AlexaFluor 350 labelled annexin V as per manufactures instructions. After staining the cells, samples were spun down and supernatant decanted. Cells were then fixed in 4% formaldehyde for 5 minutes. Fixed cells were spun down and supernatant decanted and resuspended in 400 μL 1% formaldehyde for flowcytometry. Samples were collected at a slow flow rate on a MACS Quant 10 device (Miltenyi Biotech, Auburn, CA) with 20,000 events collected per injection.
It was sought to determine whether the activities of the peptides were related to the lipid-flipping activity of the P4-ATPase. […] The intensity of the AF350-annexin V signal corresponds to concentration of PS on the exofacial side of the membrane. The propidium iodine signal corresponds to cell viability.
Single cells were first selected and gated based on morphology to ensure homogeneity among the cell population (4A, 4B). Cells with low propidium iodine intensity (PI-A<9 RU) and high AF350-annexin V intensity (Annexin V-A>9 RU) (4C, 4D) were examined. Under these gating parameters there should be, respectively, low non-specific cell death and high exofacial PS.

Series [5] concerns human red blood cells (RBCs). The note with it: 1 hour 37° C.; relative to Triton X-100 control.
Protocol: Hemolysis assays were preformed using human red blood cells (RBCs), which were provided by Interstate Blood Bank (Philadelphia, PA) and stored immediately at 4° C. upon arrival. […] Free heme was extracted from stored RBCs washing in PBS with gentle centrifugation at 1000 RPM for 5 minutes. Washed cells resuspended to 4 mL in PBS and counted using a hemocytometer. […] Red blood cells were adjusted to 5*10^8 cells/mL and 50 uL was added to each of the wells. Operating conditions were 100 μL and 2.5*10^8 cell/mL. The positive control used as 2 μL of 1% Triton X-100. The plate was incubated at 37° C. for 1 hour. The resulting plate was spun down at 1000 RPM for 5 minutes. 20 μL supernatant was transferred to 80 μL PBS in a fresh 96 well plate for analysis (operating volume 100 μL.) A Spectra Max 340 plate reader (Molecular Devices, Sunnyvale, CA) was used to measure the absorbance of the analysis plate at 410 nm. The scans were run in triplicate. Averages and standard deviations between scans and replicates were computed. The negative control was subtracted from all the data points. The resulting corrected data was normalized by the corrected positive control.
The subject of another series is C. neoformans H99. Briefly: SDS and plate spotting assay. The conditions noted are these: H99 pre-treated with peptide at 128 for one hour; versus untreated or DMSO controls. Type of series: cell-based, Cryptococcus neoformans.
Series [6] has as its system C. neoformans cdc50Δ mutant strain. The note with it: earlier mutation study / literature; cited from earlier work.
Series [7] relates to C. neoformans wild type strain H99. The note with it: earlier mutation study; cited from earlier work.

Protocol for C. neoformans H99: To test cell integrity, C. neoformans strains from 3 ml YPD overnight cultures were washed, resuspended, and serially diluted (1:10) in dH2O and spotted (5 μl) on YPD agar plates or YPD agar plates containing 0.03% SDS and incubated for 2 days at 30° C. and 37° C.
Of each strain, yeast cells were inoculated into liquid YPD with 128 μg/ml or 64 μg/ml peptide and co-incubated for 1 h at 30° C. And then, ten-fold serial dilutions were prepared, and 5 μl of each was spotted on YPD and YPD agar plates containing 0.03% SDS. The results were photographed after a 48 h incubation. Their growth was determined by serial dilutions and the fungal colonies were assessed by CFU numbers.
Briefly, cultures of C. neoformans were grown in YPD and then spotted on YPD plates containing 0.03% SDS.

Turning to `CCCCCCCCCCCCCC(=O)N[C@@H](CO)C(=O)N[C@@H](CCC(=O)O)C(=O)N[C@@H](CO)C(=O)NCC(=O)N[C@H](C(=O)N[C@@H](C)C(=O)N[C@@H](Cc1c[nH]c2ccccc12)C(=O)NCC(=O)NCC(=O)N[C@H](C(=O)N[C@@H](CCCCN)C(=O)N[C@@H](CCCCN)C(=O)N[C@@H](CC(N)=O)C(=O)N[C@@H](Cc1ccc(O)cc1)C(=O)N[C@@H](C)C(=O)O)[C@@H](C)CC)[C@@H](C)CC` [AS15-Ma] (Myristoyl-SESGIAWGGIKKNYA-OH), the “FIC ug/mL ΔCDC50 Peptide” value in series [1] is 0.25 µg/mL. The “FIC Index ΔCDC50” value in series [1] (peptide with caspofungin, ΔCDC50 (table S1)) turned out to be 0.094. Moreover, the “MIC ug/mL ΔCDC50” value in series [2] stood at 8 µg/mL (≈ 4.47 µM). Besides, the “MIC of caspofungin in the presence of peptide” value in series [3] (0.5 μg/mL peptide, H99, caspofungin alone 16 μg/mL) is 8 µg/mL. Further, the “FIC ug/mL H99 Peptide” value in series [3] (H99) came to 0.5 µg/mL. In addition, the “FIC Index H99” value in [3] (peptide with caspofungin, H99 (table S1)) is reported as 0.5-1. Further, the “MIC ug/mL H99” value in series [4] was above 128 µg/mL. Moreover, the “percentage of cells with low propidium iodine intensity (PI-A<9 RU) and high AF350-annexin V intensity (Annexin V-A>9 RU)” value in the series with C. neoformans cells is recorded as 12.1±2.0%.

Take `CCCCCCCCCCCCCC(=O)N[C@@H](Cc1c[nH]c2ccccc12)C(=O)NCC(=O)NCC(=O)N[C@H](C(=O)N[C@@H](CCCCN)C(=O)N[C@@H](CCCCN)C(=O)N[C@@H](CC(N)=O)C(=O)N[C@@H](Cc1ccc(O)cc1)C(=O)N[C@@H](C)C(=O)O)[C@@H](C)CC` [AW9-Ma] (Myristoyl-WGGIKKNYA-OH): the “FIC ug/mL ΔCDC50 Peptide” value in series [1] stood at 0.125 µg/mL. The “MIC ug/mL ΔCDC50” value in [2] worked out at 2 µg/mL (≈ 1.6 µM). Moreover, in series [3] (C. neoformans wild type), the “MIC of caspofungin in the presence of the AW9-Ma peptide” value stood at 4 µg/mL. The “FIC ug/mL H99 Peptide” value in series [3] (H99) stood at 16 µg/mL. In addition, the “MIC ug/mL H99” value in series [4] was 64 µg/mL (≈ 51.3 µM). In addition, in series [5], the “hemolysis of human RBC” value is reported as “low amounts of hemolysis”. The “growth (colony forming units) on agar medium with 0.03% SDS” value with C. neoformans H99 is given as “significantly reduced growth”. The “percentage of cells with low propidium iodine intensity (PI-A<9 RU) and high AF350-annexin V intensity (Annexin V-A>9 RU)” value in the series on C. neoformans cells is given as 67.6%±2.3.

Take `CC[C@H](C)C[C@H](C)CCCCCCCCC(=O)N[C@H]1C[C@@H](O)[C@@H](NCCN)NC(=O)[C@@H]2[C@@H](O)CCN2C(=O)[C@H]([C@H](O)CCN)NC(=O)[C@H]([C@H](O)[C@@H](O)c2ccc(O)cc2)NC(=O)[C@@H]2C[C@@H](O)CN2C(=O)[C@H]([C@@H](C)O)NC1=O` [Caspofungin, reference compound]: the “MIC ug/mL ΔCDC50” value in series [2] amounted to 4 µg/mL (≈ 3.66 µM). Moreover, the MIC in series [4] (Cryptococcus neoformans, read-out: MIC ug/mL H99) was 16 µg/mL (≈ 14.6 µM). The “MIC of caspofungin in cdc50Δ” value in series [6] is 4 µg/mL. Further, the “MIC of caspofungin in wild-type strain H99” value in [7] was 16 µg/mL.
